Format in all cases: cell-based
Assay [1] relates to FOXM1^A2 mRNA and FOXM1^BC mRNA. The experiment in a line: Splicing assay (FOXM1), qPCR of isoform mRNAs. The method in brief:
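RT-qPCR read-out after 24 h compound exposure at 37° C., 0.2% DMSO, top dose 10 μM with 4-fold 8-point dilutions, 20,000 cells per well. Copy numbers from plasmid standard curves, PPIA-normalized, expressed as isoform ratio relative to DMSO.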
(In qPCR the cycle at which signal appears reflects the starting amount.)

Assay [2] concerns A-673 cells. In words: Cell viability, crystal violet staining. The settings on record: Homo sapiens. In short, it runs like this:
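Readout is absorbance at 570 nm of crystal violet, taken up in 0.1 M sodium citrate in 50% ethanol after staining with 0.5% dye in 25% methanol. Plates held 5×10^3 cells per well, and compounds were added one day after seeding for 72 hours. Data are relative to vehicle, mean±SE.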

The nature of assay [3]: Splicing (IC50), Example 22. The conditions noted are these: spliced gene and cells not stated. How it is done:
A-673 cell viability […], splicing (IC50) and brain AUC/Plasma AUC of SMSMs were determined. As shown in the tables below SMSMs had high CNS exposure.

For assay [4], the system named is IKBKAP^FL mRNA. In words: IKBKAP splicing assay, qPCR. The conditions noted are these: 24 hours of incubation. As to the method: (§1) Various cells lines were treated with the SMSMs described herein. RNA was then isolated, cDNA synthesized, qPCR performed and the levels of IKBKAP targets of the SMSMs were determined.
(§2) On the day of the experiment, a 96-well plate was seeded with the cell lines of interest. The cells were diluted with full growth media to a concentration of 2.0×10^5 cells/mL and 100 μL of cells were added to each well (20,000 cells per well). The cells were treated with a compound immediately after plating.
(§3) The compounds were then added to the cell plate using the HP compound dispenser. In the initial experiment, a top concentration of 10 μM and an 8 point 4-fold dilution scheme was used. The stock compounds were made at a concentration of 5 mM, and the DMSO concentration was set to 0.2%. DMSO was used to normalize all the compound-containing wells and the untreated cells.
(§4) The treated cells were incubated at 37° C. in a 5% CO2 incubator for the desired amount of time. Plates were placed in a plastic bag with a wet paper towel to prevent evaporation.
(§5) RNA was isolated using the Cells to CT kit (ThermoFisher, AM1728). The cells were washed once with 100 μL cold PBS. 50 μL of lysis buffer was added to each well/tube (49.5 μL lysis buffer+0.5 μL DNase I per well/tube). The lysis reaction was mixed and incubated at room temperature for 5 minutes. 5 μL of stop solution was added directly into each cell lysis reaction and mixed by pipetting up and down 5 times. The plates/tubes were incubated at room temperature for 2 minutes then placed on ice if the cDNA synthesis was to be performed immediately. Otherwise, the plates/tubes were stored at −80° C.
(§6) cDNA synthesis reactions were then performed. 40 μL RT master mix was added to PCR tubes or plate wells. 10 μL of RNA was added to each tube/well. The RT thermal cycler program was then run and tubes or plate wells were incubated at 37° C. for 1 hour, then at 95° C. for 5 minutes to deactivate the enzyme.
(§7) The qPCR was performed using a QuantStudio 6 instrument (ThermoFisher) and the following cycling conditions and according to the tables below. All samples and standards were analyzed in triplicate. Cycle 1: 2 minutes at 50° C. Cycle 2: 10 minutes at 95° C. Cycle 3 (repeat 40 times): 15 seconds at 95° C., 1 minute at 60° C.
(§8) The determined IKBKAP^FL and […] isoform quantities were then used to determine the IKBKAP^FL: IKBKAP^Δ20 ratio at increasing SMSM compound concentrations. The PPIA quantities were used in the normalization to account of cell proliferation effects of the compounds.
(§9) An assay to measure the IKBKAP^FL mRNA and IKBKAP^Δ20 mRNA simultaneously in cell wells was performed. The RNA values were measured relative to DMSO control and also included a housekeeping gene, PPIA to ensure data was consistent. The mRNA values were measured after 24 hours of incubation with the SMSM compounds.

Assay [5] has as its system IKBKAP^Δ20 mRNA. In words: IKBKAP splicing assay, qPCR. The conditions noted are these: 24 hours of incubation. How it is done: as §1, §2, §3, §4, §5, §6, §7, §8, §9
Setting [6] is: 24 h, FoxM1 BC mRNA decrease (exon included), 0.1-1000 nM, 24 hours, read-out: Splice IC50 (nM), FoxM1 BC mRNA decrease (exon included).
[7] abbreviates: FoxM1 A mRNA increase (exon excluded), 0.1-1000 nM, 24 hours, read-out: Splice EC50 (nM), FoxM1 A mRNA increase (exon excluded).
The mark [8] stands for this setting: A673, cell viability, read-out: A-673 IC50 (nM), Cell viability.

The structures appear in SMILES notation. Where two headings read alike, the source gives them in different places. A value given as a limit tells only on which side of the number the result lay.

A word on the EC50: it is the concentration giving half of the maximal effect.

As to `CN(c1ccc(-c2cc(F)c(-c3ccn(C)c(=O)c3)cc2O)nn1)[C@H]1C[C@]2(C)CC[C@](C)(C1)N2` [compound 169, 4-(4-(6-(((1R,3s,5S)-1,5-dimethyl-8-azabicyclo[3.2.1]octan-3-yl)(methyl)amino)pyridazin-3-yl)-2-fluoro-5-hydroxyphenyl)-1-methylpyridin-2(1H)-one], the IC50 is less than 10 nM in assay [1] (FoxM1 BC mRNA decrease (exon included), read-out: Splice IC50 (nM) FoxM1 BC mRNA decrease (exon included)); less than 10 nM in assay [2] (A673, cell viability, read-out: A-673 IC50 (nM) Cell viability); no more than 5 nM in assay [2] (A673, read-out: A-673 cell viability (IC50)); less than 1 nM in assay [3]. Besides, the EC50 in assay [1] (read-out: Splice EC50 (nM) FoxM1 A mRNA increase (exon excluded)) is greater than 1000 nM.
With `CN(c1ccc(-c2ccc(-n3nccn3)cc2O)nn1)[C@@H]1C[C@H]2CC[C@@H](C1)N2` [compound 223, 2-(6-(((1R,3s,5S)-8-azabicyclo[3.2.1]octan-3-yl)(methyl)amino)pyridazin-3-yl)-5-(2H-1,2,3-triazol-2-yl)phenol], the IC50 in assay [1] (setting [6]) is less than 10 nM; in assay [1] (Homo sapiens, A-375, 24 h, A-375 cells, 24 hours, table does not say EC50 or IC50, read-out: FOXM1), 11 to 100 nM; in assay [1] (Homo sapiens, BXPC-3, 24 h, BxPC-3 cells, 24 hours, table does not say EC50 or IC50, read-out: FOXM1) it was 200 to 500 nM; in assay [1] (Homo sapiens, DU-145, 24 h, DU-145 cells, 24 hours, table does not say EC50 or IC50, read-out: FOXM1), 200 to 500 nM; in assay [1] (Homo sapiens, Daoy, 24 h, Daoy cells, 24 hours, table does not say EC50 or IC50, read-out: FOXM1), 101 to 200 nM; in assay [1] (Homo sapiens, G-401, 24 h, G-401 cells, 24 hours, table does not say EC50 or IC50, read-out: FOXM1), 11 to 100 nM. Moreover, the IC50 in assay [1] (Homo sapiens, SH-SY5Y, 24 h, SH-SY5Y cells, 24 hours, table does not say EC50 or IC50, read-out: FOXM1) is 11 to 100 nM; in assay [1] (Homo sapiens, TT, 24 h, T.T cells, 24 hours, table does not say EC50 or IC50, read-out: FOXM1), 101 to 200 nM; in assay [5] it was greater than 1000 nM; in assay [2] (setting [8]) it was 10 to 100 nM. Also, the EC50 in assay [1] (setting [7]) is less than 10 nM; in assay [4], 101 to 350 nM.
Consider `Cc1ncc(-c2ccc(-c3ccc(N(C)[C@@H]4C[C@H]5CC[C@@H](C4)N5)nn3)c(O)c2)o1` [compound 228, 2-(6-(((1R,3s,5S)-8-azabicyclo[3.2.1]octan-3-yl)(methyl)amino)pyridazin-3-yl)-5-(2-methyloxazol-5-yl)phenol], for which the IC50 was 10 to 100 nM in assay [1] (setting [6]), greater than 1000 nM in assay [5] and 10 to 100 nM in assay [2] (setting [8]). For the same compound, the EC50 was less than 10 nM in assay [1] (setting [7]) and 351 to 1000 nM in assay [4].
With `CN(c1ccc(-c2ccc(-c3cnn(C)c(=O)c3)cc2O)nn1)[C@@H]1C[C@H]2CC[C@@H](C1)N2` [compound 238, 5-(4-(6-(((1R,3s,5S)-8-azabicyclo[3.2.1]octan-3-yl)(methyl)amino)pyridazin-3-yl)-3-hydroxyphenyl)-2-methylpyridazin-3(2H)-one], the IC50 in assay [1] (setting [6]) lay in the range of 10 to 100 nM; in assay [5], 201 to 1000 nM; in assay [2] (setting [8]), 10 to 100 nM. Further, the EC50 was less than 10 nM in assay [1] (setting [7]) and 101 to 350 nM in assay [4].
As for `CN(c1ccc(-c2ccc(-c3ccn(C)c(=O)c3)cc2O)nn1)[C@@H]1C[C@H]2CC[C@@H](C1)N2` [compound 240, 4-(4-(6-(((1R,3s,5S)-8-azabicyclo[3.2.1]octan-3-yl)(methyl)amino)pyridazin-3-yl)-3-hydroxyphenyl)-1-methylpyridin-2(1H)-one], the figures for the IC50 in assay [1] (setting [6]), in assay [5] and in assay [2] (setting [8]) were less than 10 nM, 201 to 1000 nM and 10 to 100 nM, respectively. Moreover, the EC50 in assay [1] (setting [7]) is less than 10 nM; in assay [4], 101 to 350 nM.
`Oc1cc(-n2ccnc2)ccc1-c1ccc(O[C@@H]2C[C@H]3CC[C@@H](C2)N3)nn1` [compound 245, 2-(6-(((1R,3s,5S)-8-azabicyclo[3.2.1]octan-3-yl)oxy)pyridazin-3-yl)-5-(1H-imidazol-1-yl)phenol]: the IC50 in assay [1] (setting [6]) is 101 to 250 nM; in assay [2] (setting [8]), 501 to 1000 nM; in assay [3] it was 30 nM. The EC50 in assay [1] (setting [7]) lay in the range of 10 to 100 nM.
Take `Oc1cc(-n2nccn2)ccc1-c1ccc(O[C@@H]2C[C@H]3CC[C@@H](C2)N3)nn1` [compound 251, 2-(6-(((1R,3s,5S)-8-azabicyclo[3.2.1]octan-3-yl)oxy)pyridazin-3-yl)-5-(2H-1,2,3-triazol-2-yl)phenol]: the IC50 was 101 to 250 nM in assay [1] (setting [6]), 251 to 500 nM in assay [2] (setting [8]) and 150 nM in assay [3]. Also, in assay [1] (setting [7]), the EC50 lay in the range of 10 to 100 nM.
As for `Cc1nnnn1-c1ccc(-c2ccc(O[C@@H]3C[C@H]4CC[C@@H](C3)N4)nn2)c(O)c1` [compound 257, 2-(6-(((1R,3s,5S)-8-azabicyclo[3.2.1]octan-3-yl)oxy)pyridazin-3-yl)-5-(5-methyl-1H-tetrazol-1-yl)phenol], the IC50 is greater than 1000 nM in assay [2] (setting [8]) and 121 nM in assay [3].
On to `Cc1nnn(-c2ccc(-c3ccc(O[C@@H]4C[C@H]5CC[C@@H](C4)N5)nn3)c(O)c2)n1` [compound 258, 2-(6-(((1R,3s,5S)-8-azabicyclo[3.2.1]octan-3-yl)oxy)pyridazin-3-yl)-5-(5-methyl-2H-tetrazol-2-yl)phenol], for which the IC50 in assay [1] (setting [6]) is 101 to 250 nM; in assay [2] (setting [8]), 251 to 500 nM; in assay [3], 149 nM. Besides, the EC50 in assay [1] (setting [7]) was in the range of 10 to 100 nM.
With `[2H]C([2H])([2H])n1ncc(-c2ccc(-c3ccc(N(C)[C@@H]4C[C@H]5CC[C@@H](C4)N5)nn3)c(O)c2)cc1=O` [compound 282, 5-(4-(6-(((1R,3s,5S)-8-azabicyclo[3.2.1]octan-3-yl)(methyl)amino)pyridazin-3-yl)-3-hydroxyphenyl)-2-(methyl-d3)pyridazin-3(2H)-one], the figures for the IC50 in assay [1] (setting [6]), in assay [5] and in assay [2] (setting [8]) were 10 to 100 nM, 201 to 1000 nM and 10 to 100 nM, respectively. The EC50 was less than 10 nM in assay [1] (setting [7]) and 101 to 350 nM in assay [4].

(Values after patent US11008572B2, “Methods and compositions for modulating splicing” (SKYHAWK THERAPEUTICS, INC., priority 2017, dated 2021).)
